Test results as given in ChEMBL document CHEMBL1138593, “Structural modification of 3-arylisoquinolines to isoindolo[2,1-b]isoquinolinones for the development of novel topoisomerase 1 inhibitors with molecular docking study” (2009).
Calls of active or inactive are those of the source. The rule behind the calls is not given here.

Experiments:
A549 = assay: Cytotoxicity against human A549 cells by sulforhodamine B assay; format: functional
HCT-15 = assay: Cytotoxicity against human HCT15 cells by sulforhodamine B assay; format: functional
SK-OV-3 = assay: Cytotoxicity against human SKOV3 cells by sulforhodamine B assay; format: functional
Bos taurus = species on record: Bos taurus; assay: Inhibition of calf thymus DNA topoisomerase 1 assessed as relaxation of supercoiled Escherichia coli pBR322 DNA at 100 ug/mL after 30 mins by agarose gel electrophoresis

Cc1ccc2cc(-c3ccccc3CO)[nH]c(=O)c2c1
Activity (A549): 12.78 µg/mL | Activity (HCT-15): 23.11 µg/mL | Activity (SK-OV-3): 0.22 µg/mL

COc1ccc(COCc2ccccc2-c2cc3cc(C)ccc3c(=O)[nH]2)cc1
Activity (A549): 7.44 µg/mL | Activity (HCT-15): 13.27 µg/mL | Activity (SK-OV-3): 2.37 µg/mL

O=c1[nH]c(-c2ccccc2CO)cc2ccccc12
Activity (A549): 6.89 µg/mL | Activity (HCT-15): 3.88 µg/mL | Activity (SK-OV-3): 21.98 µg/mL

CC[C@@]1(O)C(=O)OCc2c1cc1n(c2=O)Cc2cc3ccccc3nc2-1 [CAMPTOTHECIN]
topoisomerase 1 inhibition (active/not active) (Bos taurus): Active | Activity (A549): 0.072 µg/mL | Activity (HCT-15): 0.089 µg/mL | Activity (SK-OV-3): 0.035 µg/mL

COc1ccc(-c2cc3ccccc3c(=O)[nH]2)c(CO)c1
Activity (A549): 3.65 µg/mL | Activity (HCT-15): 0.21 µg/mL | Activity (SK-OV-3): 0.37 µg/mL

COCOCc1cc(OC)c(OC)cc1-c1cc2ccccc2c(=O)[nH]1
Activity (A549): 16.04 µg/mL | Activity (HCT-15): 24.7 µg/mL | Activity (SK-OV-3): 12.68 µg/mL

Cc1ccc2cc3n(c(=O)c2c1)Cc1ccccc1-3
topoisomerase 1 inhibition (active/not active) (Bos taurus): Active | Activity (A549): 41.44 µg/mL | Activity (HCT-15): 35.27 µg/mL | Activity (SK-OV-3): 48.92 µg/mL

Cc1ccc2c(=O)n3c(cc2c1)-c1ccccc1C3
topoisomerase 1 inhibition (active/not active) (Bos taurus): Active | Activity (A549): 15.94 µg/mL | Activity (HCT-15): 46.35 µg/mL | Activity (SK-OV-3): 44.12 µg/mL

O=c1c2ccccc2cc2n1Cc1ccccc1-2
topoisomerase 1 inhibition (active/not active) (Bos taurus): Active | Activity (A549): 3.7 µg/mL | Activity (HCT-15): 43.93 µg/mL | Activity (SK-OV-3): 14.84 µg/mL

COc1ccc2c(c1)Cn1c-2cc2ccccc2c1=O
topoisomerase 1 inhibition (active/not active) (Bos taurus): Active | Activity (A549): 9.25 µg/mL | Activity (HCT-15): 7.29 µg/mL | Activity (SK-OV-3): 12.01 µg/mL

COc1cc(CO)c(-c2cc3cc(C)ccc3c(=O)[nH]2)cc1OC
Activity (A549): 22.1 µg/mL | Activity (HCT-15): 7.17 µg/mL | Activity (SK-OV-3): 7.8 µg/mL

COCOCc1cc(OC)ccc1-c1cc2ccccc2c(=O)[nH]1
Activity (A549): 32.98 µg/mL | Activity (HCT-15): 21.84 µg/mL | Activity (SK-OV-3): 17.06 µg/mL

COCOCc1cc(OC)c(OC)cc1-c1cc2ccc(C)cc2c(=O)[nH]1
Activity (A549): 25.02 µg/mL | Activity (HCT-15): 31.13 µg/mL | Activity (SK-OV-3): 28.22 µg/mL

COc1ccc2c(c1)Cn1c-2cc2ccc(C)cc2c1=O
topoisomerase 1 inhibition (active/not active) (Bos taurus): inactive | Activity (A549): 45.12 µg/mL | Activity (HCT-15): 34.33 µg/mL | Activity (SK-OV-3): 15.34 µg/mL

COc1cc2c(cc1OC)-c1cc3ccc(C)cc3c(=O)n1C2
topoisomerase 1 inhibition (active/not active) (Bos taurus): inactive | Activity (A549): 24.13 µg/mL | Activity (HCT-15): 6.56 µg/mL | Activity (SK-OV-3): 7.23 µg/mL

COCOCc1cc(OC)ccc1-c1cc2cc(C)ccc2c(=O)[nH]1
Activity (A549): 80.22 µg/mL | Activity (HCT-15): 29.26 µg/mL | Activity (SK-OV-3): 31.26 µg/mL

COc1ccc(COCc2ccccc2-c2cc3ccc(C)cc3c(=O)[nH]2)cc1
Activity (A549): 3.33 µg/mL | Activity (HCT-15): 4.15 µg/mL | Activity (SK-OV-3): 4.76 µg/mL

COCOCc1cc(OC)c(OC)cc1-c1cc2cc(C)ccc2c(=O)[nH]1
Activity (A549): 43.65 µg/mL | Activity (HCT-15): 34.55 µg/mL | Activity (SK-OV-3): 34.54 µg/mL

COc1cc(CO)c(-c2cc3ccccc3c(=O)[nH]2)cc1OC
Activity (A549): 7.32 µg/mL | Activity (HCT-15): 19.68 µg/mL | Activity (SK-OV-3): 12.58 µg/mL

COc1cc2c(cc1OC)-c1cc3cc(C)ccc3c(=O)n1C2
topoisomerase 1 inhibition (active/not active) (Bos taurus): inactive | Activity (A549): 49.09 µg/mL | Activity (HCT-15): 34.98 µg/mL | Activity (SK-OV-3): 36.15 µg/mL

COCOCc1cc(OC)ccc1-c1cc2ccc(C)cc2c(=O)[nH]1
Activity (A549): 66.52 µg/mL | Activity (HCT-15): 40.05 µg/mL | Activity (SK-OV-3): 23.08 µg/mL

COc1cc2c(cc1OC)-c1cc3ccccc3c(=O)n1C2
topoisomerase 1 inhibition (active/not active) (Bos taurus): inactive | Activity (A549): 36.75 µg/mL | Activity (HCT-15): 9.12 µg/mL | Activity (SK-OV-3): 12.69 µg/mL

COc1ccc(-c2cc3ccc(C)cc3c(=O)[nH]2)c(CO)c1
Activity (A549): 10.11 µg/mL | Activity (HCT-15): 7.39 µg/mL | Activity (SK-OV-3): 9.69 µg/mL

COc1cc(CO)c(-c2cc3ccc(C)cc3c(=O)[nH]2)cc1OC
Activity (A549): 15.15 µg/mL | Activity (HCT-15): 22.45 µg/mL | Activity (SK-OV-3): 0.67 µg/mL

COc1ccc(COCc2ccccc2-c2cc3ccccc3c(=O)[nH]2)cc1
Activity (A549): 26.56 µg/mL | Activity (HCT-15): 17.39 µg/mL | Activity (SK-OV-3): 24.66 µg/mL

COc1ccc(-c2cc3cc(C)ccc3c(=O)[nH]2)c(CO)c1
Activity (A549): 19.43 µg/mL | Activity (HCT-15): 4.28 µg/mL | Activity (SK-OV-3): 14.59 µg/mL

Cc1ccc2c(=O)[nH]c(-c3ccccc3CO)cc2c1
Activity (A549): 3.66 µg/mL | Activity (HCT-15): 3.34 µg/mL | Activity (SK-OV-3): 8.22 µg/mL

COc1ccc2c(c1)Cn1c-2cc2cc(C)ccc2c1=O
topoisomerase 1 inhibition (active/not active) (Bos taurus): inactive | Activity (A549): 5.95 µg/mL | Activity (HCT-15): 8.78 µg/mL | Activity (SK-OV-3): 5.52 µg/mL
